In patent US10144746B2 (GLOBAL BLOOD THERAPEUTICS, INC., priority 2015, dated 2018):

Biological target: Human plasma kallikrein (Homo sapiens (Human), UniProt P03952)
Experiment: In vitro plasma kallikrein inhibition assay (chromogenic substrate D-Pro-Phe-Arg-pNa, absorbance at 405 nm, IC50 determination)
Type: biochemical
Conditions: for IC50: read-out: KLKB1 pIC50 (converted)
Method: In Vitro Plasma Kallikrein Inhibition Assay
The chromogenic substrate D-Pro-Phe-Arg-pNa, 2HCl (BIOPHEN CS-31(02) from Hyphen BioMed, Neuville-Sur-oise, France) was dissolved in 5 mL deionized water and stored at 4° C. […] All other chemicals were of analytical grade.
A stock solution of 7 μM in 50% glycerol was stored at −20° C.
Enzyme reactions were conducted in “assay buffer” comprised of 20 mM HEPES at pH 7.4, 150 mM NaCl, 0.1% PEG-8000 and 0.01% Triton X-100.
Both enzyme and substrate were diluted in assay buffer.
Plate measurements were conducted using a SPECTROStar Nano reader (BMG Labtech, San Francisco, Calif., USA). […] We used discrete wavelength, precise, kinetic reads of 15 cycles with a 60 sec cycle time.
Determination of IC50 values
The test compound was dissolved in 100% DMSO. The compounds were serially diluted in DMSO in a 7 point dose response. For the assays, 66.5 μL of protease solution (protease in assay buffer) was added per well followed by the addition of 8.5 μL of compound in 100% DMSO. […] After 30 min. incubation at room temperature on an orbital shaker, the reactions were started by the addition of 10 μL substrate solution (in assay buffer, final assay concentration was 600 uM). After the addition of the substrate solution the final DMSO concentration was 10%. The plate was placed again on the shaker for 5 sec, spun at 2000 rpm for 5 sec and read on the spectrophotometer. […] The IC50 value was calculated from the plot of rate vs. inhibitor concentration by a 4 parameter logistic equation: y=A+((B−A)/([…]))
where y is the rate at the inhibitor concentration, x. A is the minimum y value at the highest inhibitor concentration and B is the y value in the absence of inhibitor, C is the IC50 value and D is the slope factor. The curve fitting was conducted with the non-linear regression routine of the analysis software XLfit (IDBS, version 5.3.1).

Human plasma kallikrein, sequence (P03952 391-638): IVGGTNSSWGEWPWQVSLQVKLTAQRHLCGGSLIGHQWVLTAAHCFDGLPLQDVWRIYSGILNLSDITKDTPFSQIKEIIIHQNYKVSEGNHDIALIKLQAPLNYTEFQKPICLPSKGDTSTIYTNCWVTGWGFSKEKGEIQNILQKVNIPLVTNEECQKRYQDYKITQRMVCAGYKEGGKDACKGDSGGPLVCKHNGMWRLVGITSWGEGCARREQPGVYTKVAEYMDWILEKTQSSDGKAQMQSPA
Human plasma kallikrein, sequence (P03952 20-390 partner): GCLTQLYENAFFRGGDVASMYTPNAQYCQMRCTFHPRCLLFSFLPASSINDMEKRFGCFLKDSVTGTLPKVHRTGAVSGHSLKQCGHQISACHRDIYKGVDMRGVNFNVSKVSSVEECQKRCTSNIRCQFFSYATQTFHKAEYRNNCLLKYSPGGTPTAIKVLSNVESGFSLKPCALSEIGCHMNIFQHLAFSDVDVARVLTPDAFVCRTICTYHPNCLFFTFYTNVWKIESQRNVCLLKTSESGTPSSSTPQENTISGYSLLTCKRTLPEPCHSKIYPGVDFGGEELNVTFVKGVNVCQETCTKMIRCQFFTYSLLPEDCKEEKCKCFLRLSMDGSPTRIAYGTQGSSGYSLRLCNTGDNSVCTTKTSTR

SMILES | IC50 | KLKB1 pIC50
COc1ccc(-n2cnnn2)c(CNC(=O)c2ccc3c(c2)C2OC3c3ccc(-c4ccc(F)cc4F)cc32)c1 (racemic) [Example 127, (±)-12-(2,4-difluorophenyl)-N-{[5-methoxy-2-(1H-1,2,3,4-tetrazol-1-yl)phenyl]methyl}-15-oxatetracyclo[6.6.1.0^2,^7.0^9,1^4] pentadeca-2,4,6,9,11,13-hexaene-4-carboxamide] | 977 nM | –
Cc1ccc(C#N)c(-c2ccc3c(c2)C2OC3c3ccc(C(=O)NCc4c(C)cc(N)nc4C)cc32)c1 (racemic) [Example 156, (±)-N-[(6-amino-2,4-dimethylpyridin-3-yl)-methyl]-12-(2-cyano-5-methylphenyl)-15-oxatetracyclo[6.6.1.0^2,^7.0^9,1^4] pentadeca-2,4,6,9,11,13-hexaene-4-carboxamide] | 93.3 nM | –
CC(=O)N1C2c3ccc(C(=O)NCc4c(C)cc(N)nc4C)cc3C1c1cc(-c3ccc(F)cc3F)ccc12 (racemic) [Example 209, (±)-15-acetyl-N-[(6-amino-2,4-dimethylpyridin-3-yl)methyl]-12-(2,4-difluorophenyl)-15-azatetracyclo[6.6.1.0^2,^7.0^9,1^4] pentadeca-2,4,6,9,11,13-hexaene-4-carboxamide and (±)-15-acetyl-N-[(6-amino-2,4-dimethylpyridin-3-yl)methyl]-11-(2,4-difluorophenyl)-15-azatetracyclo[6.6.1.0^2,^7.0^9,1^4] pentadeca-2,4,6,9,11,13-hexaene-4-carboxamide] | 3470 nM | –
NC(=NO)c1ccc(CNC(=O)c2ccc3c(c2)[C@@H]2O[C@H]3c3ccc(-c4ccc(Cl)s4)cc32)cc1 [Example 276, (1S,8R)-12-(5-chlorothiophen-2-yl)-N-{[4-(N′-hydroxycarbamimidoyl)phenyl]methyl}-15-oxatetracyclo[6.6.1.0^2,^7.0^9,1^4] pentadeca-2,4,6,9,11,13-hexaene-4-carboxamide] | – | 4
Cc1cc(N)nc(C)c1CNC(=O)c1ccc2c(c1)C1OC2c2ccc(-c3cccc(C(F)(F)F)c3C#N)cc21 (racemic) [Example 158, (±)-N-[(6-amino-2,4-dimethylpyridin-3-yl)-methyl]-12-[2-cyano-3-(trifluoromethyl)phenyl]-15-oxatetracyclo[6.6.1.0^2,^7.0^9,1^4] pentadeca-2,4,6,9,11,13-hexaene-4-carboxamide] | 112 nM | –
Cc1cc(N)nc(C)c1CNC(=O)c1ccc2c(c1)[C@@H]1O[C@H]2c2ccc(Cn3cc(F)cn3)cc21 (single isomer, unassigned) [Example 178] | 1 nM | –
CCc1cc(N)nc(C)c1CNC(=O)c1ccc2c(c1)C1OC2c2ccc(-c3ccc(F)cc3F)cc21 (racemic) [Example 135, (±)-N-[(6-amino-4-ethyl-2-methylpyridin-3-yl)methyl]-12-(2,4-difluorophenyl)-15-oxatetracyclo[6.6.1.0^2,^7.0^9,1^4] pentadeca-2,4,6,9,11,13-hexaene-4-carboxamide] | 19.5 nM | –
Cc1cc(N)nc(C)c1CNC(=O)c1ccc2c(c1)C1OC2c2ccc(Nc3ccn(C)n3)cc21 (racemic) [Example 51] | 933 nM | –
Cc1cc(N)nc(C)c1CNC(=O)c1ccc2c(c1)[C@@H]1O[C@H]2c2ccc(-c3ccc(F)cc3Cl)cc21 (single isomer, unassigned) [Example 176] | 67.6 nM | –
COc1ccc(Oc2ccc3c(c2)C2OC3c3ccc(C(=O)NCc4c(C)cc(N)nc4C)cc32)cn1 (racemic) [Example 152, (±)-N-[(6-amino-2,4-dimethylpyridin-3-yl)-methyl]-12-[(6-methoxypyridin-3-yl)oxy]-15-(oxatetracyclo[6.6.1.0^2,^7.0^9,1^4]pentadeca-2,4,6,9,11,13-hexaene-4-carboxamide] | 1260 nM | –
COc1cc(N)nc(C)c1CNC(=O)c1ccc2c(c1)C1OC2c2ccc(Cn3cc(C)cn3)cc21 (racemic) [Example 132, (±)-N-[(6-amino-4-methoxy-2-methylpyridin-3-yl)methyl]-12-[(4-methyl-1H-pyrazol-1-yl)-methyl]-15-oxatetracyclo[6.6.1.0^2,^7.0^9,1^4]-pentadeca-2,4,6,9,11,13-hexaene-4-carboxamide] | 2 nM | –
COc1ccncc1-c1ccc2c(c1)C1OC2c2ccc(C(=O)NCc3c(C)cc(N)nc3C)cc21 (racemic) [Example 167, (±)-N-[(6-amino-2,4-dimethylpyridin-3-yl)-methyl]-12-(4-methoxypyridin-3-yl)-15-oxatetracyclo[6.6.1.0^2,^7.0^9,1^4] pentadeca-2,4,6,9,11,13-hexaene-4-carboxamide] | 115 nM | –
Nc1nccc2ccc(CNC(=O)c3ccc4c(c3)C3OC4c4ccc(-c5ccc(F)cc5F)cc43)cc12 (racemic) [Example 154, (±)-N-[(1-aminoisoquinolin-7-yl)methyl]-12-(2,4-difluorophenyl)-15-oxatetracyclo [6.6.1.0^2,^7.0^9,1^4]-pentadeca-2,4,6,9,11,13-hexaene-4-carboxamide] | 3720 nM | –
Cc1ccc(-c2ccc3c(c2)C2OC3c3ccc(C(=O)NCc4c(C)cc(N)nc4C)cc32)c(F)c1F (racemic) [Example 118, (±)-N-[(6-amino-2,4-dimethylpyridin-3-yl)-methyl]-12-(2,3-difluoro-4-methylphenyl)-15-oxatetracyclo[6.6.1.0^2,^7.0^9,1^4] pentadeca-2,4,6,9,11,13-hexaene-4-carboxamide] | 64.6 nM | –
Cc1ccc(-c2ccc3c(c2)C2OC3c3ccc(C(=O)NCc4c(F)cc5c(c4C)CNC5)cc32)c(C#N)c1 (racemic) [Example 143, (±)-12-(2-cyano-4-methylphenyl)-N-[(6-fluoro-4-methyl-2,3-dihydro-1H-isoindol-5-yl)methyl]-15-oxatetracyclo [6.6.1.0^2,^7.0^9,1^4]pentadeca-2,4,6,9,11,13-hexaene-4-carboxamide] | 288 nM | –
Cc1ccc(-c2ccc3c(c2)C2OC3c3ccc(C(=O)NCc4c(C)cc5c(c4C)CNC5)cc32)c(C#N)c1 (racemic) [Example 137, (±)-12-(2-cyano-4-methylphenyl)-N-[(4,6-dimethyl-2,3-dihydro-1H-isoindol-5-yl)methyl]-15-oxatetracyclo[6.6.1.0^2,^7.0^9,1^4] pentadeca-2,4,6,9,11,13-hexaene-4-carboxamide] | 437 nM | –
Cc1cc(CNC(=O)c2ccc3c(c2)C2OC3c3ccc(-c4ccc(F)cc4F)cc32)c(C)nc1N (racemic) [Example 166, (±)-N-[(6-amino-2,5-dimethylpyridin-3-yl)-methyl]-12-(2,4-difluorophenyl)-15-oxatetracyclo[6.6.1.0^2,^7.0^9,1^4] pentadeca-2,4,6,9,11,13-hexaene-4-carboxamide] | 6760 nM | –

Further lines, with some results ahead:

IC50 | SMILES | KLKB1 pIC50
38.9 nM | N=C(N)c1ccc(CNC(=O)c2ccc3c(c2)[C@@H]2O[C@H]3c3ccc(N4CC5CCC(C4)O5)cc32)cc1 (single isomer, unassigned) [Example 232] | –
129 nM | CN(C)C(=NC(=N)c1ccc(CNC(=O)c2ccc3c(c2)C2OC3c3ccc(-c4ccccc4)cc32)cc1)N(C)C (racemic) [Example 190, (±)-N-{[4-({[bis(dimethylamino)methylidene]-amino}methanimidoyl)phenyl]methyl}-12-phenyl-15-oxatetracyclo[6.6.1.0^2,^7.0^9,1^4] pentadeca-2,4,6,9,11,13-hexaene-4-carboxamide] | –
17 nM | C=Cc1cc(N)nc(C)c1CNC(=O)c1ccc2c(c1)[C@@H]1O[C@H]2c2ccc(-c3ccc(F)cc3F)cc21 (single isomer, unassigned) [Example 219] | –
4.9 nM | N=C(N)c1ccc(CNC(=O)c2ccc3c(c2)C2OC3c3cc(C4CC4)c(C4CC4)cc32)cc1 (racemic) [Example 316, (±)-N-[(4-carbamimidoyl-phenyl)methyl]-11,12-dicyclopropyl-15-oxatetracyclo [6.6.1.0^2,^7.0^9,1^4]-pentadeca-2,4,6,9,11,13-hexaene-4-carboxamide] | –
32.4 nM | Cc1cc(N)nc(C)c1CNC(=O)c1ccc2c(c1)C1OC2c2cc(C3CC3)c(C3CC3)cc21 (racemic) [Example 311, (±)-N-[(6-amino-2,4-dimethyl-pyridin-3-yl)-methyl]-11,12-dicyclopropyl-15-oxatetracyclo [6.6.1.0^2,^7.0^9,1^4]pentadeca-2,4,6,9,11,13-hexaene-4-carboxamide] | –
5.01 nM | Cc1nc(N)cc(C2CCOCC2)c1CNC(=O)c1ccc2c(c1)[C@@H]1O[C@H]2c2ccc(-c3ccc(F)cc3F)cc21 (single isomer, unassigned) [Example 247] | –
10700 nM | N=C(N)c1ccc(NC(=O)c2ccc3c(c2)[C@@H]2O[C@H]3c3ccc(-c4ccc(F)cc4F)cc32)cc1 (single isomer, unassigned) [Example 244] | –
11.7 nM | N=C(N)c1ccc(CNC(=O)c2ccc3c(c2)[C@@H]2O[C@H]3c3ccc(-c4ccc(F)cc4F)cc32)cc1F (single isomer, unassigned) [Example 211] | –
